The text below walks through data of ChEMBL document CHEMBL4689842, “EUbOPEN Chemogenomics Library wave 1” (2021).

For this data set, the system named is HEK-293T. Briefly: Incucyte cell viability with HEK293T. Note: filed as whole numbers so only -1 and 0 and 1 occur. The format is toxicity, cell-based. The conditions noted are these: human, 10 µM, compound concentration 10 uM.
Where [1] appears, read: 0 h, replicate number 2, timepoint 0 hours.
[2] abbreviates: 6 h, replicate number 1, timepoint 6 hours.
Setting [3] is: 12 h, replicate number 1, timepoint 12 hours.
The mark [4] stands for this setting: 18 h, replicate number 1, timepoint 18 hours.
Where [5] appears, read: 24 h, replicate number 1, timepoint 24 hours.
[6] abbreviates: 0 h, replicate number 1, timepoint 0 hours.
Setting [7] is: 6 h, replicate number 2, timepoint 6 hours.
Setting [8] is: 12 h, replicate number 2, timepoint 12 hours.
Where [9] appears, read: 24 h, replicate number 2, timepoint 24 hours.
The mark [10] stands for this setting: 18 h, replicate number 2, timepoint 18 hours.

As for `CN(C)c1ncnc(-c2ccc3nc(Nc4cc(CN5CCN(C(=O)CC(F)(F)F)CC5)ccn4)[nH]c3c2)c1Cl` [BAY-440], the “Growth Rate” value under setting [1] amounted to 0; the “Growth Rate” value under setting [2] stood at 0; the “Growth Rate” value under setting [3] worked out at 0; the “Growth Rate” value under setting [4] is on record as 0; the “Growth Rate” value under setting [5] was found to be 0.
For `COc1ncc(-c2ccc3nccc(-c4ccnnc4)c3c2)cc1NS(=O)(=O)c1ccc(F)cc1F` [OMIPALISIB], the “Growth Rate” value was 0 under setting [2], 0 under setting [3], 0 under setting [4] and 0 under setting [5].
As to `O=C(NCCCC1CCCCC1)c1ccc(CNC(=O)c2cnn(-c3ccccc3)c2C(F)(F)F)cc1` [SR-321], the “Growth Rate” value worked out at 0 under setting [6]; 1 under setting [1]; 0 under setting [2]; 0 under setting [3]; 0 under setting [4]; 0 under setting [5].
Take `CCN(CC)CCCCNc1ncc2cc(-c3cc(OC)cc(OC)c3)c(NC(=O)NC(C)(C)C)nc2n1` [PD-173074]: the “Growth Rate” value was determined as 1 under setting [6]; 0 under setting [2]; 0 under setting [3]; 0 under setting [4]; 0 under setting [5].
Consider `Cc1c(-c2ccc(O)cc2)n(Cc2ccc(OCCN3CCCCCC3)cc2)c2ccc(O)cc12` [BAZEDOXIFENE], for which the “Growth Rate” value by setting is: under setting [1], 0; under setting [2], 0; under setting [3], 0; under setting [4], 0; under setting [5], 0.
For `CN1C(=O)c2sccc2N(C)c2nc(Nc3ccc(S(N)(=O)=O)cc3)ncc21`, the “Growth Rate” value runs as follows: under setting [2], 0; under setting [3], 0; under setting [4], 0; under setting [5], 0.
As to `O=C1NCN(c2ccccc2)C12CCN(CCCOc1ccc(F)cc1)CC2` [SPIRAMIDE], the “Growth Rate” value under setting [6] is on record as 0; the “Growth Rate” value under setting [2] is reported as 0; the “Growth Rate” value under setting [3] is given as 0; the “Growth Rate” value under setting [4] turned out to be 0; the “Growth Rate” value under setting [5] was found to be 0.
Take `CN1CCN(c2ccc(OC(F)(F)F)c(Nc3ncc4c(n3)-c3c(c(C(N)=O)nn3CCO)CC4)c2)CC1` [ONVANSERTIB]: the “Growth Rate” value is, setting by setting: under setting [6], 1; under setting [1], 0; under setting [2], 0; under setting [3], 0; under setting [4], 0; under setting [5], 0.
Take `C[C@@H](NCCCc1cccc(C(F)(F)F)c1)c1cccc2ccccc12.Cl` [CINACALCET HYDROCHLORIDE]: the “Growth Rate” value is 0 under setting [1]; 0 under setting [2]; 0 under setting [3]; 0 under setting [4]; 0 under setting [5].
On to `c1cn2cc(-c3ccc4cn[nH]c4c3)nc(Nc3ccc(N4CCOCC4)cc3)c2n1` [ENTOSPLETINIB], for which, under setting [5], the “Growth Rate” value was determined as 1.
Take `Cn1cc(C2=C(c3cn(C4CCN(Cc5ccccn5)CC4)c4ccccc34)C(=O)NC2=O)c2ccccc21` [ENZASTAURIN]: the “Growth Rate” value was found to be 0 under setting [2], 0 under setting [3], 0 under setting [4] and 0 under setting [5].
In the case of `Cn1cncc1[C@@](O)(COc1ccc(C#N)cc1-c1ccc(OC(F)(F)F)cc1)c1ccc(C#N)cc1` [A-108], the “Growth Rate” value under setting [6] turned out to be 1; the “Growth Rate” value under setting [7] was 0; the “Growth Rate” value under setting [3] was determined as 1; the “Growth Rate” value under setting [8] is given as 0; the “Growth Rate” value under setting [4] came to 0; the “Growth Rate” value under setting [5] was 0.
For `CC(C)C(=O)Nc1n[nH]c2cc(-c3cccc(NS(=O)(=O)C4CC4)c3)ccc12`, the “Growth Rate” value is reported as 0 under setting [6]; 0 under setting [2]; 0 under setting [3]; 0 under setting [4]; 0 under setting [5].
For `C=CC(=O)Nc1cc2c(Nc3ccc(F)c(Cl)c3)ncnc2cc1OCCCN1CCOCC1.Cl.Cl` [CANERTINIB DIHYDROCHLORIDE], the “Growth Rate” value by setting is: under setting [2], 0; under setting [3], 0; under setting [4], 0; under setting [5], 0.
As for `C=CC(=O)Nc1ccc2ncnc(Nc3ccc(OCc4cccc(F)c4)c(Cl)c3)c2c1.Cc1ccc(S(=O)(=O)O)cc1`, the “Growth Rate” value is, setting by setting: under setting [6], 0; under setting [1], 1; under setting [7], 0; under setting [8], 0; under setting [4], 0; under setting [5], 0.
For `CN1CCN(CCOc2cc(OC3CCOCC3)c3c(Nc4c(Cl)ccc5c4OCO5)ncnc3c2)CC1` [SARACATINIB], the “Growth Rate” value is, setting by setting: under setting [2], 0; under setting [3], 0; under setting [4], 0; under setting [5], 0.
With `CN(C)C(=O)/C(C#N)=C/c1ccc(-c2nc3cnc4[nH]ccc4c3n2C2CCCCC2)o1`, the “Growth Rate” value reads like this: under setting [6], 0; under setting [9], 1.
Turning to `Cc1csc2c(N[C@@H](C)CN3CCN(S(=O)(=O)c4ccc(Cl)c(Cl)c4)CC3)ncnc12`, the “Growth Rate” value is, setting by setting: under setting [6], 0; under setting [2], 0; under setting [3], 0; under setting [4], 0; under setting [5], 0.
Take `CCn1c(=O)c(-c2ccc(Cl)cc2Cl)cc2cnc(Nc3ccc(N4CCNCC4)c(F)c3)nc21`: the “Growth Rate” value is 0 under setting [2], 0 under setting [3], 0 under setting [4] and 0 under setting [5].
For `Cc1[nH]c(/C=C2\C(=O)Nc3ccc(S(=O)(=O)N(C)c4cccc(Cl)c4)cc32)c(C)c1C(=O)N1CCN(C)CC1`, the “Growth Rate” value is, setting by setting: under setting [6], 0; under setting [4], 0; under setting [10], 1; under setting [5], 0.
For the compound `Cn1c(-c2csc(C3CCN(CC4=NC5N=CC=CC5N4)CC3)n2)nc2ccccc21` (stereo not given) [BAY-070], the “Growth Rate” value by setting is: under setting [2], 0; under setting [3], 0; under setting [4], 0; under setting [5], 0.
For `Cc1nc(-c2cn3c(n2)-c2ccc(-c4cnn(C(C)(C)C(N)=O)c4)cc2OCC3)n(C(C)C)n1` [TASELISIB], the “Growth Rate” value was 0 under setting [2], 0 under setting [3], 0 under setting [4] and 0 under setting [5].
With `CNc1nc(NCc2ccc(NS(C)(=O)=O)cc2Cl)cc(-c2ccccn2)n1`, the “Growth Rate” value under setting [6] amounted to 1; the “Growth Rate” value under setting [1] was found to be 0; the “Growth Rate” value under setting [2] came to 0; the “Growth Rate” value under setting [3] is 0; the “Growth Rate” value under setting [4] is 0; the “Growth Rate” value under setting [5] was found to be 0.
As for `CC[C@H](C)C(=O)O[C@H]1C[C@@H](C)C=C2C=C[C@H](C)[C@H](CC[C@@H]3C[C@@H](O)CC(=O)O3)[C@H]21` [LOVASTATIN], the “Growth Rate” value by setting is: under setting [6], 0; under setting [2], 1; under setting [3], 0; under setting [8], 1; under setting [4], 0; under setting [5], 0.
Take `C[C@@]1(C(=O)Nc2ccc(F)nc2)CCCN1c1nc(Nc2cc(C3CC3)n[nH]2)c2cccn2n1` [BMS-754807]: the “Growth Rate” value under setting [2] amounted to 0, the “Growth Rate” value under setting [3] is listed as 0, the “Growth Rate” value under setting [4] turned out to be 0 and the “Growth Rate” value under setting [5] was 0.
Take `CN(C)C(=O)N[C@H]1CC[C@H](CCN2CCN(c3cccc(Cl)c3Cl)CC2)CC1.Cl` [CARIPRAZINE HYDROCHLORIDE]: the “Growth Rate” value by setting is: under setting [1], 1; under setting [2], 0; under setting [3], 0; under setting [4], 0; under setting [5], 0.
As to `CCOCCn1cc(C(=O)Nc2ccc(-n3nc(-c4cccnc4)cc3C(F)(F)F)cn2)ccc1=O` [BI 1935], the “Growth Rate” value turned out to be 1 under setting [6]; 0 under setting [2]; 0 under setting [3]; 0 under setting [4]; 0 under setting [5].
Regarding `Cc1nc(-c2ccc(-c3ccc(C(=O)N4CCc5cc6c(cc54)C4(CCN(C)CC4)CO6)cc3)c(C)c2)no1` [SB-224289], the “Growth Rate” value reads like this: under setting [1], 0; under setting [2], 0; under setting [3], 0; under setting [4], 0; under setting [5], 0.
In the case of `OC1(c2ccc(Cl)cc2)CCN(Cc2c[nH]c3ccccc23)CC1`, the “Growth Rate” value under setting [6] is 1; the “Growth Rate” value under setting [2] was determined as 0; the “Growth Rate” value under setting [3] is reported as 0; the “Growth Rate” value under setting [4] is 0; the “Growth Rate” value under setting [5] was 0.
For `CN1CCCC(n2nc(Cc3ccc(Cl)cc3)c3ccccc3c2=O)CC1.Cl` (stereo not given) [AZELASTINE HYDROCHLORIDE], the “Growth Rate” value reads like this: under setting [1], 1; under setting [2], 0; under setting [3], 0; under setting [4], 0; under setting [5], 0.
For the compound `O=C(NCCN1CCOCC1)c1ccc2c(c1)C(=O)c1ccc(Nc3ccc(F)c(NC(=O)c4ccccc4)c3)cc1CC2` [FS-694], the “Growth Rate” value came out at 0 under setting [1]; 0 under setting [2]; 0 under setting [3]; 0 under setting [4]; 0 under setting [5].
Regarding `Cl.N#Cc1ccc2[nH]cc(CCCCN3CCN(c4ccc5oc(C(N)=O)cc5c4)CC3)c2c1` [VILAZODONE HYDROCHLORIDE], the “Growth Rate” value is 0 under setting [6]; 0 under setting [2]; 0 under setting [3]; 0 under setting [4]; 0 under setting [5].
Regarding `Cc1sc2c(c1C)C(c1ccc(Cl)cc1)=N[C@@H](CC(=O)OC(C)(C)C)c1nnc(C)n1-2`, the “Growth Rate” value runs as follows: under setting [6], 0; under setting [1], 1; under setting [7], 0; under setting [8], 0; under setting [4], 1; under setting [10], 0. Besides, under setting [5], the “Growth Rate” value is on record as 0.
For `CC(C)(O)CNc1ncc(-c2ccnc(Nc3ccnc(Cl)c3)n2)c(CC2CC2)n1`, the “Growth Rate” value by setting is: under setting [1], 1; under setting [2], 0; under setting [3], 0; under setting [4], 0; under setting [5], 0.
As for `Nc1c(C(=O)NCc2ccc(C(=O)NCCCC3CCCCC3)cc2)cnn1-c1ccccc1` [SR-318], the “Growth Rate” value was found to be 0 under setting [6]; 0 under setting [7]; 0 under setting [8]; 1 under setting [4]; 0 under setting [10]; 0 under setting [5].
In the case of `CN(C)CC#Cc1ccc(OCCCc2sc(N3CCc4cccc(C(=O)Nc5nc6ccccc6s5)c4C3)nc2C(=O)O)c(F)c1` [A-1155463], the “Growth Rate” value under setting [6] was 0, the “Growth Rate” value under setting [1] was found to be 1 and the “Growth Rate” value under setting [9] is 1.
